# Results from US20130158111A1, “Compositions and Methods for Depleting Mutant p53” (Georgetown University, priority 2011, published 2013).
# Columns and labels:
# p53 in H1299-143A cells = molecular target: T1, p53 in H1299-143A cells (Homo sapiens, UniProt P04637, V143A); assay: PEITC-induced p53 depletion in H1299-143A cells, mutant vs wild-type conformation; type: cell-based; settings: 20 μM PEITC, 24 h
# T1 construct: expressed in transfected cells; host or cells: H1299-143A
# Protocol: FIG. 2 depicts PEITC depleting p53 protein in human cancer cells with different p53 mutation but not in cells with wild-type p53. (A) Cell lines harboring mutant p53 were treated with 15 μM PEITC (MDA-MB-231, MDA-MB-468, and SCC-4) or 10 μM PEITC (DU145 and SW480) for the indicated times. (B) Cells with wild-type p53 were treated with 20 μM PEITC (HCT116, A549, and MCF-7) or 15 μM PEITC (MCF-10A) for the indicated times. […] H1299-175H cells are used as control. Both cells were treated with 20 μM PEITC for 24 h.
# [1] = molecular target: T2, mutant (G245C) p53 DNA-binding domain (Homo sapiens, UniProt P04637, G245C); assay: Monochlorobimane fluorometric cysteine binding assay; settings: 100 μM ITC, 1 h, 32 C; compared with trityl ITC, cyclohexylmethyl ITC, SFN, AITC, and PITC (p<0.05)
# T2 construct: made in house; host or cells: Escherichia coli BL21
# Protocol: BL21 […] Escherichia coli were transformed with pET29b wild-type or mutant (G245C) p53 DNA binding domain (DBD) plasmids. The E. coli were then cultured in LB media supplemented with 100 μM ZnCl2 and 25 μg/mL kanamycin at 37° C. until OD600=0.6-0.8. Protein expression was induced by 0.1 mM isopropyl β-D-1-thiogalactopyranoside for 16 h at 37 gC for wild-type and 16 gC for mutant p53. Bacterial pellets were then harvested by centrifugation at 5000×g, 10 min, 4 gC, and lysed via sonication in 50 mM Tris, 50 mM KCl, 5 mM dithiothreitol, 1 mM PMSF, pH 7 buffer. The soluble fraction was passed through a Capto S cation exchange column (GE Healthcare) and eluted with 50 mM Tris, 200 mM KCl, 5 mM DTT, pH 7. Eluted protein was dialyzed overnight against a non-salt dialysis buffer (50 mM Tris, 5 mM DTT, pH 7) and loaded onto a HiTrap Heparin HP column (GE Healthcare). The p53 DBD was purified via a AKTApurifier-10 protein liquid chromatography system (GE Healthcare) with an increasing KCl salt gradient, and purity was tested by SDSPAGE and Coomassie blue staining. Purified protein was dialyzed in PBS, and protein concentrations were determined prior to performing fluorescence experiments.
# In a white 96-well plate, 100 μL of purified mutant (G245C) p53 DNA-binding domain protein in PBS was treated with DMSO, 100 μM ITCs in DMSO, or 500 μM iodoacetamide (positive binding control). An additional well containing 100 μL of PBS was used to determine background. Samples were incubated with compounds in the dark for 1 h at 32 gC, after which […] of 10 mM monochlorobimane was added (in the dark), and samples were further incubated in the dark at 32 gC for 30 min. Fluorescence readings were then obtained using a BIO-TEK Synergy HT plate reader (λex 380 nm; λem 485 nm).
# [2] = system: A549, H596, MCF-7, MDA-MB-231, MDA-MB-468, HCT116 and SW480 cells; assay: Caspase-3 colorimetric activity assay (apoptosis), mutant vs wild-type p53 cells; type: cell-based, Human; settings: PEITC 24 h; lung, breast and colon cell line sets
# Protocol: Caspase-3 activity was measured by detection of the cleavage of a colorimetric caspase-3 substrate, N-acetyl-Asp-Glu-Val-Asp (DEVD)-p-nitroaniline, using an assay kit (R&D Systems, Inc., Minneapolis, Minn.). The assay was performed according to the instructions of the manufacturer. In brief, cells were treated with drugs for 24 h. The cells were collected and lysed in ice-cold lysis buffer provided by the manufacturer. The same amount of protein extracts (100-200 μg) were incubated in a reaction buffer containing N-acetyl-DEVD-p-nitroaniline at 37 gC for 2-4 h. The levels of the resulting proteolytic fragment p-nitroanilide were measured as optical density at 405 nm with a plate reader. The data represent the mean±SD of three independent experiments.
# The role of p53 in the induction of apoptosis by ITCs is not well established and likely to be cell-specific. […] To examine this possibility, we assessed the cytotoxicity induced by PEITC in cancer cells containing either wild-type or mutant p53. Three sets of cell lines from lung, breast, and colon were used: A549 (wild-type p53) and H596 (mutant p53) lung cancer cells, MCF-7 (wild-type p53) and MDA-MB-231 and MDA-MB-468 (mutant p53) breast cancer cells, and HCT116 (wild-type p53) and SW480 (mutant p53) colon cancer cells. After treating with PEITC for 24 h, apoptosis was determined by caspase-3 activity assay.
# HOP-92 (R175L) cell line = assay: Cell proliferation, HOP-92; type: cell-based; settings: Homo sapiens, 250 nM PEITC
# Protocol: (§1) Next, the effect of PEITC exposure on tumor growth of the tumor cell lines expressing mutant or the WT p53 protein was examined. […] This hypersensitivity to PEITC being mediated through mutant p53 was next examined. The effect of PEITC on mda-mb-231 cells depleted of mutant p53 by >90% was compared to non-specific (NS) siRNA transfected cells as a control (FIG. 9B). […] Further the effect of PEITC treatment on the level of mutant p53 protein at lower doses was analyzed by western blot analysis (FIG. 9D).
# A549 (WT p53) cell line = assay: Cell proliferation, A549; type: cell-based, Human
# Protocol: as §1
# H522 cells = assay: Apoptosis and cell cycle progression, H522; type: cell-based; settings: H522, 4 uM PEITC
# Text: (§2) The negative effects of PEITC on cell proliferation might affect the apoptotic potential of the cells and the cell cycle progression.
# DU145 cells = assay: Apoptosis and cell cycle progression, DU145; type: cell-based, Human; settings: DU145, 4 uM PEITC
# Text: as §2
structure (smiles),measurement,setting,value
"S=C=NCCc1ccccc1 [PEITC, phenethyl isothiocyanate]","sensitivity to PEITC-induced p53 depletion, mutant conformation (37° C.) vs wild-type conformation (32.5° C.)",p53 in H1299-143A cells,more sensitive
same,"binding affinity for mutant (G245C) p53 DBD (free thiols, relative fluorescence)",[1],greater binding affinities
same,sensitivity of mutant p53 cancer cells vs wild-type cells to PEITC-induced apoptosis (caspase-3 activity),[2],significantly more sensitive
same,inhibition at 0.25 µM,HOP-92 (R175L) cell line,40%
same,reduction in cell proliferation,A549 (WT p53) cell line; 12 μM PEITC,25%
same,reduction in cell proliferation,A549 (WT p53) cell line; 14 μM PEITC,45%
same,apoptosis compared to DMSO treated cells,H522 cells,two fold increase
same,cell cycle progression,H522 cells,S-phase arrest
same,apoptosis compared to DMSO treated cells,DU145 cells,two fold increase
same,cell cycle progression,DU145 cells,S-phase arrest
